Laboratory results taken from the supplement of paper PMC10307832.

How the values were obtained:
Assay in all cases: relative viability (nuclei count vs DMSO), 5 days (fraction); higher = more cells survive
[1] = test system: HCC-827
In short: (§1)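 Relative viability was taken as the ratio of nuclei in treated wells to nuclei in vehicle wells. Lung cancer cell lines in 1536-well plates received compounds by pin tool one day after seeding, either one drug alone or a fixed anchor-drug dose plus five library-drug doses (not always all listed) in √10 steps. Nuclei were counted on 4× images after 5 days of treatment, and values are medians of duplicate plates.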

[2] = test system: NCI-H322M
In short: as §1

[3] = test system: NCI-H1651
In short: as §1

[4] = test system: SK-MES-1
In short: as §1

[5] = test system: NCI-H1355
In short: as §1

[6] = test system: HCC-15
In short: as §1

[7] = test system: NCI-H2405
In short: as §1

[8] = test system: CAL-12T
In short: as §1

[9] = test system: EKVX
In short: as §1

[10] = test system: NCI-H2228
In short: as §1

[11] = test system: RERF-LC-KJ
In short: as §1

[12] = test system: PC-14
In short: as §1

[13] = test system: COR-L23
In short: as §1

[14] = test system: LK-2
In short: as §1

[15] = test system: ABC-1
In short: as §1

[16] = test system: NCI-H1734
In short: as §1

[17] = test system: NCI-H1437
In short: as §1

[18] = test system: NCI-H520
In short: as §1

[19] = test system: PC-3 [JPC-3]
In short: as §1

[20] = test system: NCI-H661
In short: as §1

[21] = test system: H3255
In short: as §1

[22] = test system: SW 1573
In short: as §1

[23] = test system: NCI-H1563
In short: as §1

SMILES: Clc1ccc(Nc2nnc(Cc3ccncc3)c3ccccc23)cc1 [Vatalanib] + Cc1nc(NC(=O)N2CCC[C@H]2C(N)=O)sc1-c1ccnc(C(C)(C)C(F)(F)F)c1 [Alpelisib] (partner 2 µM)
- relative viability ([1]; first compound 0.04 µM): 0.991
- relative viability ([1]; first compound 0.1265 µM): 1.01
- relative viability ([1]; first compound 0.4 µM): 0.828
- relative viability ([1]; first compound 1.265 µM): 1
- relative viability ([1]; first compound 4 µM): 0.786
- relative viability ([2]; first compound 0.04 µM): 0.775
- relative viability ([2]; first compound 0.1265 µM): 0.709
- relative viability ([2]; first compound 0.4 µM): 0.75
- relative viability ([2]; first compound 1.265 µM): 0.782
- relative viability ([2]; first compound 4 µM): 0.795
- relative viability ([3]; first compound 0.04 µM): 0.869
- relative viability ([3]; first compound 0.1265 µM): 0.863
- relative viability ([3]; first compound 0.4 µM): 0.968
- relative viability ([3]; first compound 1.265 µM): 0.894
- relative viability ([3]; first compound 4 µM): 0.929
- relative viability ([4]; first compound 0.04 µM): 1.11
- relative viability ([4]; first compound 0.1265 µM): 0.849
- relative viability ([4]; first compound 0.4 µM): 0.912
- relative viability ([4]; first compound 1.265 µM): 0.807
- relative viability ([4]; first compound 4 µM): 0.868
- relative viability ([5]; first compound 0.04 µM): 0.821
- relative viability ([5]; first compound 0.1265 µM): 0.747
- relative viability ([5]; first compound 0.4 µM): 0.87
- relative viability ([5]; first compound 1.265 µM): 0.691
- relative viability ([5]; first compound 4 µM): 0.711
- relative viability ([6]; first compound 0.04 µM): 0.893
- relative viability ([6]; first compound 0.1265 µM): 0.884
- relative viability ([6]; first compound 0.4 µM): 0.918
- relative viability ([6]; first compound 1.265 µM): 0.916
- relative viability ([6]; first compound 4 µM): 0.937
- relative viability ([7]; first compound 0.04 µM): 0.959
- relative viability ([7]; first compound 0.1265 µM): 0.769
- relative viability ([7]; first compound 1.265 µM): 0.795
- relative viability ([7]; first compound 4 µM): 0.773
- relative viability ([8]; first compound 0.04 µM): 1.05
- relative viability ([8]; first compound 0.1265 µM): 1.26
- relative viability ([8]; first compound 0.4 µM): 1.44
- relative viability ([8]; first compound 1.265 µM): 0.987
- relative viability ([8]; first compound 4 µM): 1.22
- relative viability ([9]; first compound 0.04 µM): 0.939
- relative viability ([9]; first compound 0.1265 µM): 0.821
- relative viability ([9]; first compound 0.4 µM): 0.824
- relative viability ([9]; first compound 1.265 µM): 0.829
- relative viability ([9]; first compound 4 µM): 0.785
- relative viability ([10]; first compound 0.04 µM): 0.691
- relative viability ([10]; first compound 0.1265 µM): 0.728
- relative viability ([10]; first compound 0.4 µM): 0.867
- relative viability ([10]; first compound 1.265 µM): 0.713
- relative viability ([10]; first compound 4 µM): 0.637
- relative viability ([11]; first compound 0.04 µM): 0.824
- relative viability ([11]; first compound 0.1265 µM): 0.859
- relative viability ([11]; first compound 0.4 µM): 0.77
- relative viability ([11]; first compound 1.265 µM): 0.74
- relative viability ([11]; first compound 4 µM): 0.765
- relative viability ([12]; first compound 0.04 µM): 0.993
- relative viability ([12]; first compound 0.1265 µM): 0.9
- relative viability ([12]; first compound 0.4 µM): 0.97
- relative viability ([12]; first compound 1.265 µM): 0.904
- relative viability ([12]; first compound 4 µM): 0.866
- relative viability ([13]; first compound 0.04 µM): 0.769
- relative viability ([13]; first compound 0.1265 µM): 0.75
- relative viability ([13]; first compound 0.4 µM): 1.07
- relative viability ([13]; first compound 1.265 µM): 0.665
- relative viability ([13]; first compound 4 µM): 0.739
- relative viability ([14]; first compound 0.04 µM): 0.951
- relative viability ([14]; first compound 0.1265 µM): 0.999
- relative viability ([14]; first compound 1.265 µM): 1.07
- relative viability ([14]; first compound 4 µM): 1.24
- relative viability ([15]; first compound 0.04 µM): 1
- relative viability ([15]; first compound 0.1265 µM): 0.936
- relative viability ([15]; first compound 0.4 µM): 1.2
- relative viability ([15]; first compound 1.265 µM): 0.853
- relative viability ([15]; first compound 4 µM): 0.926
- relative viability ([16]; first compound 0.04 µM): 0.747
- relative viability ([16]; first compound 0.1265 µM): 0.684
- relative viability ([16]; first compound 0.4 µM): 0.743
- relative viability ([16]; first compound 1.265 µM): 0.685
- relative viability ([16]; first compound 4 µM): 0.689
- relative viability ([17]; first compound 0.04 µM): 0.975
- relative viability ([17]; first compound 0.1265 µM): 1
- relative viability ([17]; first compound 0.4 µM): 0.997
- relative viability ([17]; first compound 1.265 µM): 1.04
- relative viability ([17]; first compound 4 µM): 0.991
- relative viability ([18]; first compound 0.04 µM): 0.848
- relative viability ([18]; first compound 0.1265 µM): 0.895
- relative viability ([18]; first compound 0.4 µM): 0.912
- relative viability ([18]; first compound 1.265 µM): 0.855
- relative viability ([18]; first compound 4 µM): 0.852
- relative viability ([19]; first compound 0.04 µM): 1.01
- relative viability ([19]; first compound 0.1265 µM): 0.972
- relative viability ([19]; first compound 0.4 µM): 1.01
- relative viability ([19]; first compound 1.265 µM): 0.941
- relative viability ([19]; first compound 4 µM): 1.01
- relative viability ([20]; first compound 0.04 µM): 0.617
- relative viability ([20]; first compound 0.1265 µM): 0.557
- relative viability ([20]; first compound 0.4 µM): 0.717
- relative viability ([20]; first compound 1.265 µM): 0.653
- relative viability ([20]; first compound 4 µM): 0.519
- relative viability ([21]; first compound 0.04 µM): 0.649
- relative viability ([21]; first compound 0.1265 µM): 0.666
- relative viability ([21]; first compound 0.4 µM): 0.514
- relative viability ([21]; first compound 1.265 µM): 0.705
- relative viability ([21]; first compound 4 µM): 0.618
- relative viability ([22]; first compound 0.04 µM): 0.75
- relative viability ([22]; first compound 0.1265 µM): 0.598
- relative viability ([22]; first compound 0.4 µM): 0.749
- relative viability ([22]; first compound 1.265 µM): 0.79
- relative viability ([22]; first compound 4 µM): 0.667
- relative viability ([23]; first compound 0.04 µM): 0.937
- relative viability ([23]; first compound 0.1265 µM): 0.862
- relative viability ([23]; first compound 0.4 µM): 1.03
- relative viability ([23]; first compound 1.265 µM): 0.863
- relative viability ([23]; first compound 4 µM): 0.979
